Data: ChEMBL document CHEMBL1201862, “PubChem BioAssay data set” (2004)
The source made the active and inactive calls.

Tests used:
Albumin = Albumin (Bos taurus, UniProt P02769); assay: Counterscreen for inhibitors of T-cell receptor (TCR)-CD3 interaction: Fluorescence-based biochemical high throughput dose response assay to identify inhibitors of T-cell receptor (TCR)-CD3 interaction using a TAMRA-labeled BSA probe.; type: functional
Caspase-6 = biological target: T1, Caspase-6 (Homo sapiens, UniProt P55212); assay: human caspase-6 inhibitors, dose response, biochemical, VEID-R110 fluorescence, cherry-pick (AID 720632)
T1 sequence (P55212 whole entry): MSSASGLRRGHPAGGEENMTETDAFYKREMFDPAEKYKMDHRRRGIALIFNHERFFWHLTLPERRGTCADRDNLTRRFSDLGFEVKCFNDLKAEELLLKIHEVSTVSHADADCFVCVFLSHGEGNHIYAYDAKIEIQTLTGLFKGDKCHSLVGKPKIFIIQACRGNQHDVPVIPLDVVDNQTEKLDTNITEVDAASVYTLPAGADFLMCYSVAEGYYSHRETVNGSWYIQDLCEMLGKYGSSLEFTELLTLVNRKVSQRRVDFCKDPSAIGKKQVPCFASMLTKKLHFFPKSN

Caspase-7 = Caspase-7 (Homo sapiens, UniProt P55210); assay: human caspase-7 inhibitors, dose response, selectivity assay for caspase-6 inhibitor project, biochemical, DEVD-R110 fluorescence, cherry-pick (AID 743295)
cells [1] = type: functional, cell-based
[2] = biological target: T2, Trace amine-associated receptor 1 (Homo sapiens, UniProt Q96RJ0); assay: Fluorescence-based cell-based high throughput dose response assay to identify agonists of the human trace amine associated receptor 1 (TAAR1).; type: functional
[3] = biological target: T2, Trace amine-associated receptor 1; assay: Counterscreen for agonists of the human trace amine associated receptor 1 (hTAAR1): Fluorescence-based cell-based high throughput dose response assay to identify hTAAR1 agonist that also desensitize TAAR1 receptor response.; type: functional
cells [4] = type: functional, cell-based; remark: listed apart in the source
Major prion protein = Major prion protein (Homo sapiens, UniProt P04156); type: functional, cell-based
cells [5] = assay: cells
[6] = biological target: Photoreceptor-specific nuclear receptor (Homo sapiens, UniProt Q9Y5X4); type: functional, cell-based;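 further: CHO-S cells with Gal4-NCOR and VP16-NR2E3 two-hybrid luciferase reporter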
A549 = assay: A549 cell toxicity, dose response, cytotoxicity control, plate reader, cherry-pick samples (AID 687028); type: functional, cell-based; details: Homo sapiens
[7] = A549 cell cytotoxicity, dose response, cytotoxicity control, plate reader, cherry-pick, antagonist series (AID 743412); type: functional, cell-based
[8] = HepG2 cell cytotoxicity, dose response, cytotoxicity control, plate reader, cherry-pick, antagonist series (AID 743416); type: functional, cell-based
[9] = LGR2 antagonists, dose response, cell-based, HEK293, CRE-luciferase reporter, cherry pick, set 2 (AID 743343); type: functional;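 further: transfected cells were stimulated with diluted bursicon conditioned medium after compound addition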
[10] = MC4R antagonists, dose response, counter-screen for LGR2 antagonist project, cell-based, plate reader, cherry pick (AID 743444); type: functional;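 further: transfected HEK 293 cells stimulated with alpha-MSH peptide; potency of inhibitors of the alpha-MSH evoked signal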
[11] = HEK293 cell cytotoxicity, dose response, cytotoxicity control, plate reader, cherry-picked samples (AID 743446); type: functional, cell-based
Hexokinase HKDC1 = biological target: T3, Hexokinase HKDC1 (Homo sapiens, UniProt Q2TB90); assay: HKDC1 hexokinase inhibitors, dose response, biochemical, W721R variant (AID 504729); type: functional
T3 sequence (Q2TB90 whole entry): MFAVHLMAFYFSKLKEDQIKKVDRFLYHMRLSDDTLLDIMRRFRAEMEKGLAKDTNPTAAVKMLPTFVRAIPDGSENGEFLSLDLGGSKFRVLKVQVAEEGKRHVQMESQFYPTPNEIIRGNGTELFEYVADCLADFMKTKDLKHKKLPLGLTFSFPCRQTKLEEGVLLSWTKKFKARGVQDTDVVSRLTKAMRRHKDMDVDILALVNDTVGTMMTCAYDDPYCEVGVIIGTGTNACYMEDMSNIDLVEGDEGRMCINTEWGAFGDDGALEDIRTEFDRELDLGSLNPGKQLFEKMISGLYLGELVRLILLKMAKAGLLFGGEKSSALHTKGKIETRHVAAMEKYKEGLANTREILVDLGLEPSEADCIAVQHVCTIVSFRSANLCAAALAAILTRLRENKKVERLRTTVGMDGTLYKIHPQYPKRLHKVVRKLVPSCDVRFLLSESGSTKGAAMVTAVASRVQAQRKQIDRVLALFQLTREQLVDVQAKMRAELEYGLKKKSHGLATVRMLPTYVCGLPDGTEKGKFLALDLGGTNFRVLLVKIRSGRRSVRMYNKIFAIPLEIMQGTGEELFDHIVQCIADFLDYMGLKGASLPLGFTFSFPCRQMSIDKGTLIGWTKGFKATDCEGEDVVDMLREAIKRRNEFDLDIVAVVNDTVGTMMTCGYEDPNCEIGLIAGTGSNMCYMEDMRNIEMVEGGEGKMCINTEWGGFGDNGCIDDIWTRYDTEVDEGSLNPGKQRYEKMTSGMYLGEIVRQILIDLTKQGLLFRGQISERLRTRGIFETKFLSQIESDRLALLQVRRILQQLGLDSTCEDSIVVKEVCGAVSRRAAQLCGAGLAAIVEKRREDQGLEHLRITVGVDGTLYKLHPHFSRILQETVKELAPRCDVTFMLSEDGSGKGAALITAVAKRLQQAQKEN

[12] = biological target: T4, Polyadenylate-binding protein 1 (Homo sapiens, UniProt P11940); assay: PABP1 MLLE–PAM2 interaction inhibitors, dose response, miRNA deadenylation inhibitor project, biochemical, fluorescence polarization, Cy5-PAM2 peptide, secondary (AID 602260); type: functional; details: read-out: IC50_Mean
[13] = biological target: T4, Polyadenylate-binding protein 1; assay: PABP1 MLLE–PAM2 binding inhibitor potency, dose response, biochemical, fluorescence polarization, FITC-PAM2 peptide (AID 602259); type: functional; details: read-out: IC50_Mean
Paired box protein Pax-8 = Paired box protein Pax-8 (Homo sapiens, UniProt Q06710); assay: inhibitors of PAX8-driven TPO luciferase reporter, dose response, RMG-I cells, cherry-pick (AID 687027); type: functional, cell-based;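 further: luciferase reporter driven by Pax8 target thyroperoxidase promoter measured by SteadyGlo luminescence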
[14] = biological target: T5, Histone-lysine N-methyltransferase NSD2 (Homo sapiens, UniProt O96028); type: biochemical
T5 sequence (O96028 whole entry): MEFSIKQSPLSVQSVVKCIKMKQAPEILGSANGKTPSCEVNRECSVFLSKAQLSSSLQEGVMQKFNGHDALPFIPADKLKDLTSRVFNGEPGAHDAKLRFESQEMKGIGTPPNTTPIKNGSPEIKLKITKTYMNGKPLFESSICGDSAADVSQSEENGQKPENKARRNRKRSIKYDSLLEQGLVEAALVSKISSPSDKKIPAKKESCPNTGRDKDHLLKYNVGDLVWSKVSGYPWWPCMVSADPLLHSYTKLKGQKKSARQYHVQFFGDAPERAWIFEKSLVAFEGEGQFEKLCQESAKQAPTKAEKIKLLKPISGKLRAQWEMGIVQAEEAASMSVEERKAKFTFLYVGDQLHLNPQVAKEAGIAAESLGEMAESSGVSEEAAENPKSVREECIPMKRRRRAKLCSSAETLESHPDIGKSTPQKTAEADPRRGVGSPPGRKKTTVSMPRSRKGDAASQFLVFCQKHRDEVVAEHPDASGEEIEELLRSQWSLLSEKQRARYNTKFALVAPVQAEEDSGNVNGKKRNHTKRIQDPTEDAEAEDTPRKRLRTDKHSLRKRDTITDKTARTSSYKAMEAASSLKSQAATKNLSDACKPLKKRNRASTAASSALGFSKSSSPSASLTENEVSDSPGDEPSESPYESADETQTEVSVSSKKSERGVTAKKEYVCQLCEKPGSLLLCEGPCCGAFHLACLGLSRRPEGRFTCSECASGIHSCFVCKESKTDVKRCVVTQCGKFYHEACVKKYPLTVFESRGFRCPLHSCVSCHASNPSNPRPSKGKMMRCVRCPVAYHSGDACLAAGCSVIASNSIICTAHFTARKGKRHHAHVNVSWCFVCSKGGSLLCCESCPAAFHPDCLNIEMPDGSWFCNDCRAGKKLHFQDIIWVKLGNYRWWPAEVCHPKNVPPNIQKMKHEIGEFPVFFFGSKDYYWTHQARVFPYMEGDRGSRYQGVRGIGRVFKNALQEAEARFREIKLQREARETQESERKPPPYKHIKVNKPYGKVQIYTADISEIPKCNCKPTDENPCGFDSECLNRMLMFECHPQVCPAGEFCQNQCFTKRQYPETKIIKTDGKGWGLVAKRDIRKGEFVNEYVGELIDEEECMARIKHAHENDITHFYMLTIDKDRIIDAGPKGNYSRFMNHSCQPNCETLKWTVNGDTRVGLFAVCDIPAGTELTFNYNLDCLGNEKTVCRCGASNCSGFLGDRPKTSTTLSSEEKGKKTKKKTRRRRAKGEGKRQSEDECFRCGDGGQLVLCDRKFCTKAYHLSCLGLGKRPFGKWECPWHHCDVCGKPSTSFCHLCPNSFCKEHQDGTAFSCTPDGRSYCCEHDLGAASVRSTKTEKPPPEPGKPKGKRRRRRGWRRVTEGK

[15] = biological target: Tyrosyl-DNA phosphodiesterase 2 (Homo sapiens, UniProt O95551); assay: human TDP2 enzyme inhibitors, dose response, biochemical, epi absorbance, IC50 (AID 743297)
[16] = non-specific cell cytotoxicity, dose response, cytotoxicity control for PAX8 inhibitor project, plate reader, dry powder samples (AID 743021); type: functional, cell-based
cells [17] = type: functional, cell-based; remark: listed apart in the source
[18] = biological target: T6, Nuclear receptor subfamily 0 group B member 1 (Homo sapiens, UniProt P51843); type: functional, cell-based;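 further: HEK293T cells transfected with SF-1 and DAX-1 plus StAR promoter luciferase reporter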
T6 sequence (P51843 whole entry): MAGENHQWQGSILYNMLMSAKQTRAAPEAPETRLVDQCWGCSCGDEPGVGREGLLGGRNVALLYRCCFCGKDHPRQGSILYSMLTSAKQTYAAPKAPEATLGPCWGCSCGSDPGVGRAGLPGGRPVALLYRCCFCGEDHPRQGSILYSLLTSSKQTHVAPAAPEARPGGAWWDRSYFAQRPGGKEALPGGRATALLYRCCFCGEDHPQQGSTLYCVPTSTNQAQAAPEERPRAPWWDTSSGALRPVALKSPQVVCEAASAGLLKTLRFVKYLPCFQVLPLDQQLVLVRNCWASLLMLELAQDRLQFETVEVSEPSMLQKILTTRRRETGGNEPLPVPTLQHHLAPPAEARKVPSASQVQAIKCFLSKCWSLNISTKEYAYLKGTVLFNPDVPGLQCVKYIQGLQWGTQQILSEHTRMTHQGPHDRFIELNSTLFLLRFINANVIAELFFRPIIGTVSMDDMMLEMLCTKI

Galanin receptor type 3 = Galanin receptor type 3 (Homo sapiens, UniProt O60755); assay: Fluorescence-based cell-based primary high throughput dose response assay to identify antagonists of the Galanin Receptor 3 (GalR3).; type: functional
cells [19] = type: functional, cell-based; details: HEK-CNG
[20] = lymphoblastoid cell cytotoxicity, dose response, cytotoxicity control, plate reader, dry powder, set 2 (AID 624367); type: functional
[21] = NIH:OVCAR-3 ovarian cancer cell cytotoxicity, dose response, PAX8 inhibitor project, plate reader, dry powder samples (AID 743044); type: functional, cell-based
[22] = cytotoxicity in OVCAR8 ovarian cancer cells, dose response, PAX8 project, cell-based, plate reader, dry powder samples (AID 743197); type: functional; details: OVCAR-8
[23] = inhibitors of HIV Env-driven cell fusion, dose response, cherry-pick (AID 652057); type: functional, cell-based
[24] = CEM21 lymphoblast cell cytotoxicity, dose response, cytotoxicity control for viral fusion inhibitor project, CellTiter-Glo luminescence, cherry-picked (AID 652042); type: functional, cell-based;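 further: potency for signal decrease meaning cytotoxicity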
[25] = inhibitors of clade B AD8 Env fusion, dose response, cell-based, cherry-pick (AID 652062); type: functional;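 further: luciferase signal from cell-cell fusion driven by HIV-1 clade B AD8 Env; potency is for inhibitors of fusion seen as a drop in luminescence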
Protein Wnt-3a = Protein Wnt-3a (Mus musculus, UniProt P27467); assay: SAR analysis of small molecule antagonists of Gli-SUFU in a Wnt3a luminescent reporter assay.; type: functional

O=c1c(CO)cc(CO)cc(CO)c1O
IC50 (Albumin): > 94 µM (inactive) | AC50 (Caspase-6): 2.22 µM (active) | AC50 (Caspase-7): > 70 µM (inactive)

COc1cc(C)c(NC(=O)C(S)=NCCc2ccccc2)cc1C
IC50 (cells [1]): > 29.9 µM (inactive) | EC50 [2]: 0.766 µM (active) | IC50 [3]: 2.38 µM (active) | EC50 (cells [4]): > 29.9 µM (inactive)

CCCc1nc(SCC(=O)NNC(=O)c2ccc(OC)cc2)c2ccccc2n1
IC50 (Major prion protein): 1.52 µM (active) | IC50 (cells [5]): > 138 µM (inactive)

Cc1cnc(NC(=O)C2CC(=O)N(c3cccc(Cl)c3)C2)s1 (stereo unspecified)
IC50 [6]: 0.0757 µM (active) | AC50 (A549): 14.8 µM (active) | AC50 [7]: 4.65 µM (active) | AC50 [8]: 0.763 µM (active) | AC50 [9]: 4.8 µM (active) | AC50 [10]: 5.08 µM (active) | AC50 [11]: > 52 µM (inactive)

NC1=C(Br)C(=O)c2ncccc2C1=O
IC50 (Hexokinase HKDC1): 8.91 µM (active) | IC50 [12]: > 66 µM (inactive) | IC50 [13]: > 66 µM (inactive) | IC50 [6]: 2.48 µM (active) | AC50 (Paired box protein Pax-8): 1.22 µM (active) | AC50 [14]: 0.164 µM (active) | IC50 [15]: 2.66 µM (active) | AC50 [16]: 10.1 µM (active)

CC(=O)c1sc(Nc2ccc(Oc3ccccc3)cc2)nc1C
IC50 (cells [17]): > 67.6 µM (inactive) | IC50 [18]: > 67.6 µM (inactive)

CCCCCC(O)C=CC1C(O)CC(O)C1CC=CCCCC(=O)O (stereo unspecified)
IC50 (Galanin receptor type 3): > 0.123 µM (active) | EC50 (cells [19]): > 29.9 µM (inactive)

O=C(Nc1ccc(C(F)(F)F)cc1)Nc1ccc2c(c1)[C@H]1C[C@@H](CC(=O)N3CCc4ccccc4C3)O[C@@H](CO)[C@H]1O2
AbsAC35 [20]: 44.28 µM | AC50 (Paired box protein Pax-8): 10.7 µM (active) | AC50 [21]: 63.1 µM (active) | AC50 [22]: > 70 µM (inactive)

COc1ccc2c3c([nH]c2c1)[C@H](CO)N(C(=O)Nc1cccc(F)c1)CC31CN(S(=O)(=O)c2cccc(C)c2)C1
AC50 [23]: 27.7 µM (active) | AC50 [24]: 27.5 µM (active) | AC50 [25]: 38.1 µM (active)

O=C(Nc1cc(N2CCCC2)ncn1)c1ccccc1
IC50 (Protein Wnt-3a): > 21.8 µM (inactive)
